Measured values taken from publication PMC6270976, “Pharmacokinetic Study in Mice of Galphimine-A, an Anxiolytic Compound from Galphimia glauca” (Molecules, 2014).
Like-named read-outs stand apart in the source and are kept apart here.

Test: Brain tissue pharmacokinetics of G–A after a single oral dose in ICR mice (HPLC, PKSolver)
Type: in vivo
Experimental: Eighty-eight mice were randomly divided into 11 groups with eight individuals each. All animals were orally administered with 200 mg/kg of G–A dissolved in 5% β-cyclodextrin solution. Under ether-induced anesthesia, blood samples were obtained from the retroorbital sinus with heparinized cannula at different times (0, 5, 10, 15, 30, 60, 120, 240, 480, 720, and 1,440 min) after G–A administration. The volume of the blood samples was of 700 to 1000 microliters, which were collected in heparinized centrifuge microtubes, after the blood was centrifuged for 5 min at 1,720 × g.
Plasma samples were frozen at −70 °C, and lyophilized after. The obtained dry product was used to extract and measure the amount of G–A. After obtaining blood samples, all animals were perfused with isotonic saline solution (ISS) via cardiac puncture; the femoral vein was used to eliminate the perfusion liquid, until it appeared clear. Subsequently, the brain was removed. The brains were weighed fresh and frozen at −70 °C and then lyophilized. Once dry, the brains were weighed again to determine the volume of water contained in each brain. Dry tissue was ground in a mortar, and G–A was later extracted.
Dry pulverized samples (plasma and brain) were extracted with methanol (HPLC grade, Merck). The extracts were filtered with a 0.45 μm, 13 mm Teflon membrane (Millex®-LCR), and 20 μL of filtrate were injected into the HPLC equipment. Measurements were performed in a Waters 2695 HPLC, with diode array detector (Waters 2996) and the Empower Pro 1.0 software. A Chromolith Performance® RP-18e 100 × 4.6 mm (Merck KGaA Darmstadt, Germany) was used. The mobile phase consisted of a mixture of acetonitrile:water (55:45, 1 mL/min). G–A concentration was obtained by comparison with a pre-built calibration curve at λ = 220 nm.
To evaluate the suitability of the assay for pharmacokinetic studies, 200 mg/kg of G–A was orally administered to mice. Eight animals were used in each group different times (0, 5, 10, 15, 30, 60, 120, 240, 480, 720, and 1440 min). Pharmacokinetic calculations were performed using the observed data. All data were subsequently processed using PKSolver add-in program for Microsoft Excel written in Visual Basic for Applications. […]
The pharmacokinetic model selection either one or two-comparment, were used both the Akaike information criterion (AIC) and Schwarz criterion (SC). Using the criteria, one may select the model with which to reach a lower value of AIC or SC, which means that the chosen model is more parsimonious (less parameters required) and best fits the data (low error prediction).

[1] = brain tissue, oral 200 mg/kg, n = 8
[2] = mouse, brain tissue, oral 200 mg/kg, n = 8

- G–A Concentration Brain (1440 min (24 h) after single oral 200 mg/kg, mean ± S.E.M., n = 8, 200 mg/kg): 0.32 ± 0.14 µg/mL
- Tmax (ICR, mouse, brain, po, 200 mg/kg, brain tissue, oral 200 mg/kg, n = 8, read-out: Tmax (converted)): 1.36 h
- A [1]: 2.98 µg/mL
- V/F [1]: 68.16 (mg/kg)/(μg/mL)
- k10 [1]: 0.0008 min⁻¹
- ka [1]: 0.051 min⁻¹
- Tmax (brain tissue, oral 200 mg/kg, n = 8, 200 mg/kg): 1.36 h
- AUC(0-inf) [2]: 58700 ng·h/mL
- CL/F [2]: 57 mL/min/kg
- Cmax [2]: 2740 ng/mL
- MRT [2]: 20.3 h
- AUC(0-t) (mouse, brain tissue, oral 200 mg/kg, n = 8, read-out: AUC0-1440 min (converted)): 31900 ng·h/mL
- concentration at 5 min (mouse, brain, 5 min after single oral 200 mg/kg, mean ± S.E.M., n = 8): 0 ng/mL
- concentration at 10 min (mouse, brain, 10 min after single oral 200 mg/kg, mean ± S.E.M., n = 8): 880 ± 330 ng/mL
- concentration at 15 min (mouse, brain, 15 min after single oral 200 mg/kg, mean ± S.E.M., n = 8): 1480 ± 580 ng/mL
- concentration at 30 min (mouse, brain, 30 min after single oral 200 mg/kg, mean ± S.E.M., n = 8): 3440 ± 500 ng/mL
- concentration at 60 min (mouse, brain, 60 min after single oral 200 mg/kg, mean ± S.E.M., n = 8): 3010 ± 590 ng/mL
- concentration at 120 min (mouse, brain, 120 min after single oral 200 mg/kg, mean ± S.E.M., n = 8): 2500 ± 580 ng/mL
- concentration at 240 min (mouse, brain, 240 min after single oral 200 mg/kg, mean ± S.E.M., n = 8): 2180 ± 480 ng/mL
- concentration at 480 min (mouse, brain, 480 min after single oral 200 mg/kg, mean ± S.E.M., n = 8): 1780 ± 370 ng/mL
- concentration at 720 min (mouse, brain, 720 min after single oral 200 mg/kg, mean ± S.E.M., n = 8): 550 ± 180 ng/mL
- concentration at 1440 min (mouse, brain, 1440 min (24 h) after single oral 200 mg/kg, mean ± S.E.M., n = 8): 320 ng/mL
SMILES: COC(=O)[C@@]12CC[C@]3(C)C([C@H](O)[C@H](O)[C@@]4([C@@H](C)O)COC(=O)C=C[C@H]43)[C@@]1(C)CC[C@@]1(C)CC=C(C)C[C@]12O (stereo partly shown) [G–A, galphimine-A]
